Inconclusive results and toxic doses are left out. Rule for the calls: active = survival T/C of 150% or more; inactive = T/C below 125% in these data.
Test system: CD2F1 mice, L1210 leukemia ip, survival T/C
Experiment: NCI In Vivo Anticancer Drug Screen. Data for tumor model L1210 Leukemia (intraperitoneal) in CD2F1 (CDF1) mice
Conditions: higher = longer survival
Method in brief: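 Each value reflects a quotient of treated over vehicle control outcomes in mice with a transplanted tumor.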

[1] = endpoint: mean survival time, dose: 6.25 mg/kg/injection, schedule: Q04DX003 (ip), vehicle: saline with Tween-80
[2] = endpoint: mean survival time, dose: 100.0 mg/kg/injection, schedule: Q04DX003 (ip), vehicle: saline with Tween-80
[3] = endpoint: mean survival time, dose: 100.0 mg/kg/injection, schedule: Q01DX001 (ip), vehicle: saline with Tween-80
[4] = endpoint: mean survival time, dose: 100.0 mg/kg/injection, schedule: Q01DX009 (ip), vehicle: Klucel (hydroxypropylcellulose) (HPC)
[5] = endpoint: mean survival time, dose: 200.0 mg/kg/injection, schedule: Q01DX001 (ip), vehicle: saline with Tween-80
[6] = endpoint: mean survival time, dose: 200.0 mg/kg/injection, schedule: Q01DX009 (ip), vehicle: Klucel (hydroxypropylcellulose) (HPC)
[7] = endpoint: mean survival time, dose: 400.0 mg/kg/injection, schedule: Q01DX001 (ip), vehicle: saline with Tween-80
[8] = endpoint: mean survival time, dose: 100.0 mg/kg/injection, schedule: Q01DX009 (ip), vehicle: saline with Tween-80
[9] = endpoint: mean survival time, dose: 200.0 mg/kg/injection, schedule: Q01DX009 (ip), vehicle: saline with Tween-80
[10] = endpoint: mean survival time, dose: 400.0 mg/kg/injection, schedule: Q01DX009 (ip), vehicle: saline with Tween-80
[11] = endpoint: mean survival time, dose: 200.0 mg/kg/injection, schedule: Q04DX003 (ip), vehicle: saline with Tween-80
[12] = endpoint: mean survival time, dose: 400.0 mg/kg/injection, schedule: Q04DX003 (ip), vehicle: saline with Tween-80
[13] = endpoint: mean survival time, dose: 100.0 mg/kg/injection, schedule: Q04DX003 (ip), vehicle: saline
[14] = endpoint: mean survival time, dose: 200.0 mg/kg/injection, schedule: Q04DX003 (ip), vehicle: saline
[15] = endpoint: mean survival time, dose: 100.0 mg/kg/injection, schedule: Q01DX001 (ip), vehicle: saline
[16] = endpoint: mean survival time, dose: 50.0 mg/kg/injection, schedule: Q01DX009 (ip), vehicle: saline with Tween-80

Measured: T/C

CCCC[NH-].CCCC[NH-].O=C(O)CC(=O)O.[Pt+2]
inactive: [1] 96 % of control | endpoint: mean survival time, dose: 25.0 mg/kg/injection, schedule: Q04DX003 (ip), vehicle: saline with Tween-80 96 % of control | [2] 98 % of control

Cc1ccc(S(=O)(=O)Nc2ccc(Cl)c(Cl)c2)cc1
inactive: [3] 104 % of control | [4] 105 % of control | [5] 101 % of control | [6] 95 % of control | [7] 103 % of control

CSC(=S)NN=C(C)C
inactive: endpoint: mean survival time, dose: 6.25 mg/kg/injection, schedule: Q01DX009 (ip), vehicle: saline sonified 89 % of control | [1] 96 % of control | endpoint: mean survival time, dose: 12.5 mg/kg/injection, schedule: Q01DX009 (ip), vehicle: saline sonified 87 % of control | endpoint: mean survival time, dose: 12.5 mg/kg/injection, schedule: Q04DX003 (ip), vehicle: saline with Tween-80 96 % of control

CN1NC(c2ccc(Cl)cc2)C2CN(C3CCCCC3)C(=O)C21O (centres undefined)
inactive: [3] 100 % of control | [8] 96 % of control | [5] 96 % of control | [9] 90 % of control | [7] 94 % of control | [10] 88 % of control

Oc1ccc(O)c(/C=N/NC(=S)NC2CC3CC2C2C=CCC32)c1 (centres undefined)
inactive: endpoint: mean survival time, dose: 12.5 mg/kg/injection, schedule: Q01DX009 (ip), vehicle: olive oil, sesame oil, peanut oil 93 % of control | endpoint: mean survival time, dose: 25.0 mg/kg/injection, schedule: Q01DX009 (ip), vehicle: olive oil, sesame oil, peanut oil 96 % of control | endpoint: mean survival time, dose: 50.0 mg/kg/injection, schedule: Q01DX009 (ip), vehicle: olive oil, sesame oil, peanut oil 100 % of control | endpoint: mean survival time, dose: 100.0 mg/kg/injection, schedule: Q01DX009 (ip), vehicle: olive oil, sesame oil, peanut oil 102 % of control | endpoint: mean survival time, dose: 200.0 mg/kg/injection, schedule: Q01DX009 (ip), vehicle: olive oil, sesame oil, peanut oil 87 % of control | endpoint: mean survival time, dose: 400.0 mg/kg/injection, schedule: Q01DX009 (ip), vehicle: olive oil, sesame oil, peanut oil 94 % of control

CC(=O)OCC1OC(n2cnc(C(=O)O)c2N)C(OC(C)=O)C1OC(C)=O (centres undefined)
inactive: endpoint: median survival time, dose: 8.75 mg/kg/injection, schedule: Q01DX005 (ip), vehicle: saline 98 % of control | endpoint: median survival time, dose: 17.5 mg/kg/injection, schedule: Q01DX005 (ip), vehicle: saline 100 % of control | endpoint: median survival time, dose: 35.0 mg/kg/injection, schedule: Q01DX005 (ip), vehicle: saline 96 % of control | endpoint: median survival time, dose: 70.0 mg/kg/injection, schedule: Q01DX005 (ip), vehicle: saline 96 % of control | endpoint: median survival time, dose: 140.0 mg/kg/injection, schedule: Q01DX005 (ip), vehicle: saline 98 % of control

COc1ccc(CCCC(=O)O)cc1
inactive: [3] 94 % of control | [5] 92 % of control | [7] 94 % of control

COC(=O)c1cccc(OC)c1OC
inactive: [8] 101 % of control | [2] 108 % of control | [9] 96 % of control | [11] 98 % of control | [10] 98 % of control | [12] 100 % of control

c1cc2c3c(cccc3c1)/C(=C1/Cc3cccc4cccc1c34)C2
inactive: [8] 107 % of control | [2] 103 % of control | [9] 113 % of control | [11] 104 % of control | [10] 110 % of control | [12] 107 % of control

CC(SC(=S)N(C)C)C(=O)O (centres undefined)
inactive: [2] 96 % of control | [11] 101 % of control | [12] 101 % of control

CNc1ccc(CSc2ccccc2)cc1
inactive: endpoint: mean survival time, dose: 100.0 mg/kg/injection, schedule: Q01DX001 (ip), vehicle: Klucel (hydroxypropylcellulose) (HPC) 96 % of control | endpoint: mean survival time, dose: 200.0 mg/kg/injection, schedule: Q01DX001 (ip), vehicle: Klucel (hydroxypropylcellulose) (HPC) 96 % of control | endpoint: mean survival time, dose: 400.0 mg/kg/injection, schedule: Q01DX001 (ip), vehicle: Klucel (hydroxypropylcellulose) (HPC) 87 % of control

Clc1ccc(C2(c3ccncc3)OCCO2)cc1
inactive: [13] 101 % of control | [14] 101 % of control

CC(=O)OCC(OC(C)=O)C(OC(C)=O)C(OC(C)=O)C(COC(=O)c1ccccc1)OC(=O)c1ccccc1 (centres undefined)
inactive: [3] 96 % of control | [5] 100 % of control | [7] 96 % of control

Cc1ccnc(NC2=CC(=O)C(=O)c3ccccc32)c1
inactive: endpoint: mean survival time, dose: 100.0 mg/kg/injection, schedule: Q01DX009 (ip), vehicle: saline sonified 108 % of control | endpoint: mean survival time, dose: 200.0 mg/kg/injection, schedule: Q01DX009 (ip), vehicle: saline sonified 103 % of control

C[N+](C)(C)CC[N+](C)(C)C
inactive: endpoint: mean survival time, dose: 50.0 mg/kg/injection, schedule: Q04DX003 (ip), vehicle: saline 100 % of control | [13] 103 % of control | [14] 97 % of control

CN(C)S(=O)(=O)/C=C(\Cl)c1ccccc1
inactive: [3] 97 % of control | [5] 100 % of control | [7] 104 % of control

O=C(O)CC(O)C(=O)O.[Fe] (centres undefined)
inactive: [15] 93 % of control

O=C(Cc1ccc([N+](=O)[O-])cc1)Nc1ccc(O)cc1
inactive: [3] 98 % of control | [5] 104 % of control | [7] 101 % of control

COc1cc(Cl)ccc1NC(=O)Nc1ccc(C(=O)O)cc1
inactive: [16] 95 % of control | [8] 95 % of control | [9] 91 % of control

COc1ccc(C[C@@H]2NC[C@@H](O)[C@@H]2OC(C)=O)cc1
inactive: [8] 98 % of control | [2] 105 % of control | [9] 104 % of control | [11] 103 % of control | [12] 100 % of control

COC(=O)c1cc(Cl)c(C(=O)OC)cc1Cl
inactive: [4] 92 % of control | [6] 97 % of control | endpoint: mean survival time, dose: 400.0 mg/kg/injection, schedule: Q01DX009 (ip), vehicle: Klucel (hydroxypropylcellulose) (HPC) 102 % of control

CN=C(N)/N=C(\N)C(Cl)(Cl)Cl
inactive: [15] 111 % of control | endpoint: mean survival time, dose: 200.0 mg/kg/injection, schedule: Q01DX001 (ip), vehicle: saline 86 % of control | endpoint: mean survival time, dose: 400.0 mg/kg/injection, schedule: Q01DX001 (ip), vehicle: saline 90 % of control

O=[N+]([O-])/C=C\c1ccccc1
inactive: [2] 96 % of control | [11] 90 % of control | [12] 86 % of control

C=C1C(O)C2(O)OCC34C(CC5C(C)=CC(=O)C(O)C5(C)C23)OC(=O)C(OC(=O)C/C=C(\C)CCCCC)C14 (centres undefined)
inactive: endpoint: median survival time, dose: 1.0 mg/kg/injection, schedule: Q01DX005 (ip), vehicle: saline + alcohol 109 % of control | endpoint: median survival time, dose: 2.0 mg/kg/injection, schedule: Q01DX005 (ip), vehicle: saline + alcohol 118 % of control | endpoint: median survival time, dose: 8.0 mg/kg/injection, schedule: Q01DX005 (ip), vehicle: saline + alcohol 121 % of control

CCOC(=O)C1=C(C)NC(C)=C(C(=O)OCC)C1c1ccc(Cl)cc1
inactive: [8] 96 % of control | [9] 100 % of control | [10] 96 % of control

O=C(O)/C=C/C(=O)Nc1cccc2c1C(=O)c1ccccc1-2
inactive: endpoint: mean survival time, dose: 25.0 mg/kg/injection, schedule: Q01DX009 (ip), vehicle: saline with Tween-80 97 % of control | [16] 94 % of control | [8] 102 % of control

O=C(C[n+]1cc2ccccc2cc1/C=N/O)c1ccccc1
inactive: [16] 98 % of control | [8] 93 % of control | [2] 95 % of control | [9] 96 % of control | [11] 95 % of control

O=C([O-])CC(=O)[O-].[NH-][C@@H]1CCCC[C@H]1[NH-].[Pt+4]
inactive: [1] 113 % of control
